We go through two compounds from patent US20200371122A1, “BIOMARKER FOR SENESCENT CELLS” (Buck Institute for Research on Aging, priority 2017, published 2020).

For test [1], the system named is bleomycin-induced fibrosis. Particulars: administration; Kida 2016, Genovese 2005; cited from earlier work.
Test [2] deals with IMR-90 fibroblasts. Nature of the test: Induction of senescence in non-senescent cells by prostaglandins or 5-LOX pathway products (EdU, SA-B-gal, p21, immunoblot). Particulars: 10 μM, 10 days. In kind it is cell-based, human. The method, then:
RNA was extracted from cells or tissues using commercially available kits (Isolate II—Bioline for cells; Direct-zol—Zymo for tissues) according to the manufacturer's instructions. cDNA synthesis was performed using a High Capacity cDNA Reverse Transcription Kit (Thermo Fisher) according to the manufacturer's instructions. Quantitative PCR was performed on a LightCycler 480 II (Roche) using primers and probes designed for the Universal Probe Library. Primers and probes used for human transcripts were ACTB: 5′-CCAACCGCGAGAAGATGA (SEQ ID NO:1), 5′-TCCATCACGATGCCAGTG (SEQ ID NO:2), Probe #64; TUBA: 5′-cttcgtctccgccatcag (SEQ ID NO:3), 5′-ttgccaatctggacacca (SEQ ID NO:4), Probe #58; ALOX5: 5′-[…] (SEQ ID NO:5), 5′-[…] (SEQ ID NO:6), Probe #64; ALOX5AP: 5′-ggtctgcggggctacttt (SEQ ID NO:7), 5′-[…] (SEQ ID NO:8), Probe #18; ALOX12: 5′-[…] (SEQ ID NO:9), 5′-agccaggtcgtcaggag (SEQ ID NO:10), Probe #32; ALOX15: 5′-[…] (SEQ ID NO:11), 5′-[…] (SEQ ID NO:12), Probe #76; ALOX15B: 5′-[…] (SEQ ID NO:13), 5′-actgggaggcgaagaagg (SEQ ID NO:14), Probe #51; AKR1C1: 5′-catgcctgtcctgggattt (SEQ ID NO:15), 5′-[…] (SEQ ID NO:16), Probe #49; AKR1C2: 5′-ctatgcgcctgcagaggt (SEQ ID NO:17), 5′-[…] (SEQ ID NO:18), Probe #31; AKR1C3: 5′-[…] (SEQ ID NO:19), 5′-[…] (SEQ ID NO:20), Probe #78; CYSLTR2: 5′-[…] (SEQ ID NO:21), 5′-[…] (SEQ ID NO:22), Probe #18; DPEP1: 5′-gacgtcctgaggctggtg (SEQ ID NO:23), 5′-[…] (SEQ ID NO:24), Probe #9 (SEQ ID NO:25), ELOVL2: 5′-[…] (SEQ ID NO:26), 5′-[…] (SEQ ID NO:27), Probe #53; ELOVL4: 5′-catttggcccatggattc (SEQ ID NO:28), 5′-[…] (SEQ ID NO:29), Probe #31; ELOVL5: 5′-cccttccatgcgtccata (SEQ ID NO:30), 5′-[…] (SEQ ID NO:31), Probe #31; EPHX2: 5′-ttctgctggacaccctgaa (SEQ ID NO:32), 5′-[…] (SEQ ID NO:33), Probe #45; GPX4: 5′-ttcccgtgtaaccagttcg (SEQ ID NO:34), 5′-[…] (SEQ ID NO:35), Probe #36; LTA4H: 5′-ctgctctcacggtccagtc (SEQ ID NO:36), 5′-[…] (SEQ ID NO:37), Probe #64; LTBR2: 5′-[…] (SEQ ID NO:38), 5′-[…] (SEQ ID NO:39), Probe #33; LTC4S: 5′-[…] (SEQ ID NO:40), 5′-[…] (SEQ ID NO:41), Probe #18; PTGDS: 5′-[…] (SEQ ID NO:42), 5′-[…] (SEQ ID NO:43), Probe #36; PTGES: 5′-agagatgcctgcccacag (SEQ ID NO:44), 5′-tggccaccacgtacatctt (SEQ ID NO:45), Probe #4; PTGES2: 5′-[…] (SEQ ID NO:46), 5′-[…] (SEQ ID NO:47), Probe #49; PTGES3 (SEQ ID NO:48), 5′-[…] (SEQ ID NO:49), 5′-[…] (SEQ ID NO:50), Probe #48; PTGIS: 5′-[…] (SEQ ID NO:51), 5′-[…] (SEQ ID NO:52), Probe #45; PTGR1: 5′-atgatggggcagcaagtg (SEQ ID NO:53), 5′-cccatcagaaatggagtgc (SEQ ID NO:54), Probe #64; PTGS1: 5′-[…] (SEQ ID NO:55), 5′-gtggtggtccatgttcctg (SEQ ID NO:56), Probe #81; PTGS2: 5′-gatccccagggctcaaac (SEQ ID NO:57), 5′-[…] (SEQ ID NO:58), Probe #61; TBXAS1: 5′-[…] (SEQ ID NO:59), 5′-tgcctcccgtgtgaatct (SEQ ID NO:60), Probe #73; AREG: 5′-[…] (SEQ ID NO:61), 5′-[…] (SEQ ID NO:62), Probe #73; CCL2: 5′-AGTCTCTGCCGCCCTTCT (SEQ ID NO:63), 5′-GTGACTGGGGCATTGATTG (SEQ ID NO:64), Probe #40; CCL27: 5′-[…] (SEQ ID NO:65), 5′-gctgggtggcagtaggaat (SEQ ID NO:66), Probe #18; CXCL1: 5′-[…] (SEQ ID NO:67), 5′-[…] (SEQ ID NO:68), Probe #52; HGF: 5′-[…] (SEQ ID NO:69), 5′-[…] (SEQ ID NO:70), Probe #49; ILIA: 5′-[…] (SEQ ID NO:71), 5′-[…] (SEQ ID NO:72), Probe #6; IL1B: 5′-[…] (SEQ ID NO:73), 5′-[…] (SEQ ID NO:74), Probe #78; IL6: 5′-[…] (SEQ ID NO:75), 5′-gaaggcagcaggcaacac (SEQ ID NO:76), Probe #45; IL8: 5′-[…] (SEQ ID NO:77), 5′-atggttccttccggtggt (SEQ ID NO:78), Probe #72; IL10: 5′-[…] (SEQ ID NO:79), 5′-[…] (SEQ ID NO:80), Probe #67; MMP3: 5′-[…] (SEQ ID NO:81), 5′-[…] (SEQ ID NO:82), Probe #36; PDGFA: 5′-[…] (SEQ ID NO:83), 5′-[…] (SEQ ID NO:84), Probe #80; VEGF: 5′-[…] (SEQ ID NO:85), 5′-[…] (SEQ ID NO:86), Probe #50; P21WAF1(CDKN1A): 5′-[…]
In general terms: In western blotting, separated proteins are transferred to a membrane and probed.

The test system of test [3] is SASP factors. Nature of the test: qPCR of SASP and PTGS mRNAs in non-senescent cells treated with eicosanoids. To be noted: 10 μM, for PGJ2 and 15d-PGJ2 most factors except VEGF and PDGF. In kind it is cell-based, human. How it is done:
RNA was extracted from cells or tissues using commercially available kits (Isolate II—Bioline for cells; Direct-zol—Zymo for tissues) according to the manufacturer's instructions. cDNA synthesis was performed using a High Capacity cDNA Reverse Transcription Kit (Thermo Fisher) according to the manufacturer's instructions. Quantitative PCR was performed on a LightCycler 480 II (Roche) using primers and probes designed for the Universal Probe Library. Primers and probes used for human transcripts were ACTB: 5′-CCAACCGCGAGAAGATGA (SEQ ID NO:1), 5′-TCCATCACGATGCCAGTG (SEQ ID NO:2), Probe #64; TUBA: 5′-cttcgtctccgccatcag (SEQ ID NO:3), 5′-ttgccaatctggacacca (SEQ ID NO:4), Probe #58; ALOX5: 5′-[…] (SEQ ID NO:5), 5′-[…] (SEQ ID NO:6), Probe #64; ALOX5AP: 5′-ggtctgcggggctacttt (SEQ ID NO:7), 5′-[…] (SEQ ID NO:8), Probe #18; ALOX12: 5′-[…] (SEQ ID NO:9), 5′-agccaggtcgtcaggag (SEQ ID NO:10), Probe #32; ALOX15: 5′-[…] (SEQ ID NO:11), 5′-[…] (SEQ ID NO:12), Probe #76; ALOX15B: 5′-[…] (SEQ ID NO:13), 5′-actgggaggcgaagaagg (SEQ ID NO:14), Probe #51; AKR1C1: 5′-catgcctgtcctgggattt (SEQ ID NO:15), 5′-[…] (SEQ ID NO:16), Probe #49; AKR1C2: 5′-ctatgcgcctgcagaggt (SEQ ID NO:17), 5′-[…] (SEQ ID NO:18), Probe #31; AKR1C3: 5′-[…] (SEQ ID NO:19), 5′-[…] (SEQ ID NO:20), Probe #78; CYSLTR2: 5′-[…] (SEQ ID NO:21), 5′-[…] (SEQ ID NO:22), Probe #18; DPEP1: 5′-gacgtcctgaggctggtg (SEQ ID NO:23), 5′-[…] (SEQ ID NO:24), Probe #9 (SEQ ID NO:25), ELOVL2: 5′-[…] (SEQ ID NO:26), 5′-[…] (SEQ ID NO:27), Probe #53; ELOVL4: 5′-catttggcccatggattc (SEQ ID NO:28), 5′-[…] (SEQ ID NO:29), Probe #31; ELOVL5: 5′-cccttccatgcgtccata (SEQ ID NO:30), 5′-[…] (SEQ ID NO:31), Probe #31; EPHX2: 5′-ttctgctggacaccctgaa (SEQ ID NO:32), 5′-[…] (SEQ ID NO:33), Probe #45; GPX4: 5′-ttcccgtgtaaccagttcg (SEQ ID NO:34), 5′-[…] (SEQ ID NO:35), Probe #36; LTA4H: 5′-ctgctctcacggtccagtc (SEQ ID NO:36), 5′-[…] (SEQ ID NO:37), Probe #64; LTBR2: 5′-[…] (SEQ ID NO:38), 5′-[…] (SEQ ID NO:39), Probe #33; LTC4S: 5′-[…] (SEQ ID NO:40), 5′-[…] (SEQ ID NO:41), Probe #18; PTGDS: 5′-[…] (SEQ ID NO:42), 5′-[…] […]
On the technique in general: In qPCR the cycle at which signal appears reflects the starting amount.

For test [4], the system named is IMR-90 fibroblasts. Nature of the test: Oncogenic ras-induced senescence of IMR-90 fibroblasts. In kind it is cell-based, human. To be noted: RasV12 lentivirus, 7 days treatment. The source says:
Senescence was induced by irradiation with 10 Gy of ionizing radiation. Non-senescent controls (proliferating or quiescent) were placed in the irradiator for an identical period of time without turning on the irradiator. Oncogene-induced senescence was induced via lentiviral overexpression of HRAS^V12, as described previously (Wiley et al. (2016) Cell Metab. 23: 303-314).

SMILES strings stand for the structures.

Consider `CCCCC/C=C/C=C1/C(=O)C=C[C@@H]1C/C=C\CCCC(=O)O` [15d-PGJ2], for which the bleomycin-induced fibrosis entry in test [1] is “attenuate”. In test [2], the p21 gene expression entry is “induced” and the senescence-associated beta-galactosidase result was “induced”. In addition, the p21 protein accumulation result in test [2] (immunoblot) is reported as “induced”. Further, the “SASP factor mRNAs” value in test [3] is “strongly induced”.

Turning to `CC(c1cc2ccccc2s1)N(O)C(N)=O` (stereo not drawn) [zileuton], the “ras-induced senescence (IL-6 secretion, EdU incorporation, colony formation)” value in test [4] was “blunting”.
